Experimental findings from the NIST ThermoML archive (doi:10.1016/j.tca.2013.10.035) are described below.

Numbers after ± are expanded uncertainties.

For data set [1] the following is noted: DTA.
Data set [2] in a line: Molar enthalpy of transition or fusion. The settings on record: DSC.

For the compound `CC(=O)Nc1ccc(O)cc1` [N-acetyl-p-aminophenol], the figures for the Normal melting temperature in data set [1] (Crystal 1) and in data set [1] (Metastable crystal) were 169.2 ± 0.5 °C and 156.7 ± 0.5 °C, respectively. Besides, the Glass transition temperature in data set [1] is 21.2 ± 0.5 °C. The “Molar enthalpy of transition or fusion” value in data set [2] (Crystal 1) came to 6.21 ± 0.191 kcal/mol; in data set [2] (Metastable crystal), 5.95 ± 0.167 kcal/mol.
In the case of `COc1ccc2cc([C@H](C)C(=O)O)ccc2c1` [(S)-(+)-naproxen], the Normal melting temperature in data set [1] (Crystal) turned out to be 153.6 ± 0.5 °C. Besides, the “Molar enthalpy of transition or fusion” value in data set [2] (Crystal) came to 6.93 ± 0.191 kcal/mol.
As for `Cc1ccccc1OCC(O)CO` (stereo not given) [3-(2-methylphenoxy)-1,2-propanediol], in data set [1] (Crystal 1), the Normal melting temperature was 70.0 ± 0.5 °C. Besides, the Glass transition temperature in data set [1] was -34.5 ± 0.5 °C. Besides, in data set [2] (Crystal 1), the “Molar enthalpy of transition or fusion” value is 7.12 ± 0.215 kcal/mol.
Take `COc1ccccc1OCC(O)COC(N)=O` (stereo not given) [2-hydroxy-3-(2-methoxyphenoxy)propyl carbamate]: the Normal melting temperature in data set [1] (Crystal) came out at 95.4 ± 0.5 °C. Also, the Glass transition temperature in data set [1] was found to be 3.2 ± 0.5 °C. The “Molar enthalpy of transition or fusion” value in data set [2] (Crystal) was 9.23 ± 0.263 kcal/mol.
Consider `CC(C)NCC(O)COc1ccc(CC(N)=O)cc1` (stereo not given) [2-(4-(2-hydroxy-3-(isopropylamino)propoxy)phenyl)acetamide], for which the Normal melting temperature in data set [1] (Crystal) came to 152.8 ± 0.5 °C. Also, in data set [2] (Crystal), the “Molar enthalpy of transition or fusion” value amounted to 8.99 ± 0.239 kcal/mol.
